The values that follow are results of earlier work, collected in article PMC4203335 (International Journal of Oncology, 2014).

The conditions of series [1]: mice.
In series [2] the test system is Burkitt lymphoma xenografts.
The test system of series [3] is N-Myc-induced neuroblastoma.

On to `O=c1[nH]c(=S)[nH]c(-c2ccccc2)c1Cc1c(O)ccc2ccccc12` [Cambinol], for which the tolerability entry in series [1] was “well tolerated”. The growth of xenografts entry in series [2] was “significantly inhibited”.
As for `CC(C)=CCC[C@]1(C)[C@@H](CC=C(C)C)C[C@@]2(CC=C(C)C)C(=O)[C@]1(C(=O)C(C)C)C(=O)C(CC=C(C)C)=C2OCC(=O)O` [aristoforin], the SIRT1 inhibitory activity result with SIRT1 was “have SIRT1 inhibitory activity”.
Turning to inauhzin, the xenograft growth result in the series with colon xenograft is given as “reduced colon xenograft growth”.
Take `CN(C)CCCCC(=O)Nc1ccc(NC(=S)NC(=O)c2ccc(C(C)(C)C)cc2)cc1` [Tenovin-6]: the tumorigenesis result (in series [3]; in the series on melanoma) was “suppressed tumorigenesis” in each case.
Regarding guttiferone G, in the series on SIRT1, the SIRT1 inhibitory activity entry was “have SIRT1 inhibitory activity”.
